This is an account of results in ChEMBL document CHEMBL5620415, “Design, synthesis and anti-hepatic fibrosis activity of novel diphenyl vitamin D receptor agonists” (Eur J Med Chem, 2023).

The structures appear in SMILES notation. Calls of active or inactive are those of the source. The calls are words filed in the database; no cut-off is given here.

Series [1] has as its target T1, Vitamin D3 receptor (Homo sapiens) (UniProt P11473).
T1 sequence (whole entry): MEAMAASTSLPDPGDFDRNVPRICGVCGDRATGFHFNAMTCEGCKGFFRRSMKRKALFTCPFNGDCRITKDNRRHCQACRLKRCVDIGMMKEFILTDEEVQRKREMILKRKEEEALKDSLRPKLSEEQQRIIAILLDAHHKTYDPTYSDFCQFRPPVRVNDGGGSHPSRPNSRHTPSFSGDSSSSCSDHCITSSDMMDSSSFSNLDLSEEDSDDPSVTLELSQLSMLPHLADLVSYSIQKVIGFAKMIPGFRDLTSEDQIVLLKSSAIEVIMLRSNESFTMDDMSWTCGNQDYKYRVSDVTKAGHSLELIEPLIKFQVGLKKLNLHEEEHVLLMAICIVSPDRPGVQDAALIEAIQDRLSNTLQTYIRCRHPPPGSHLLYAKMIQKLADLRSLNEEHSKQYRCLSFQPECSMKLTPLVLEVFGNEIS
The experiment in a line: Agonist activity at Vitamin D receptor in human LX-2 cells assessed as transcriptional activity by measuring induction of CYP24A expression at 0.5 uM by RT-qPCR analysis relative to control. It counts as cell-based. As to conditions: filed as agonist.

In series [2] the target is T1, Vitamin D3 receptor (Homo sapiens). The experiment in a line: Agonist activity at Vitamin D receptor in HEK293 cells assessed as receptor transactivation incubated for 48 hrs by dual-luciferase reporter assay. It counts as cell-based. As to conditions: filed as agonist, dose 0.01-1 µM. A general note: Reporter assays use an easily measured gene product as a stand-in for the process of interest.

For series [3], the system named is Mus musculus. The experiment in a line: Anti-fibrotic effect in improving CCl4-induced hepatic fibrosis C57BL/6 mouse model assessed as uniform liver parenchyma at 500 ug/kg, po five times a week for 2 weeks by qualitative ultrasound imaging analysis. It counts as functional, organism-based. The conditions noted are these: dose 500.0 µg/kg.
Series [4] deals with Mus musculus. Description: Anti-fibrotic effect in improving CCl4-induced hepatic fibrosis C57BL/6 mouse model assessed as decrease in liver to kidney brightness ratio at 500 ug/kg, po five times a week for 2 weeks by qualitative ultrasound imaging analysis. It counts as functional, organism-based. The conditions noted are these: dose 500.0 µg/kg.
The subject of series [5] is Mus musculus. The experiment in a line: Anti-fibrotic effect in CCl4-induced hepatic fibrosis C57BL/6 mouse model assessed as reduction in hepatic fibrosis lesions at 500 ug/kg, po five times a week for 2 weeks by Hematoxylin-Eosin (H&E) staining based assay. It counts as functional, organism-based. As to conditions: dose 500.0 µg/kg.
In series [6] the test system is Mus musculus. Description: Anti-fibrotic effect in CCl4-induced hepatic fibrosis C57BL/6 mouse model assessed as reduction the lesions at 500 ug/kg, po five times a week for 2 weeks by Hematoxylin-Eosin (H&E) staining based assay. It counts as functional, organism-based. The conditions noted are these: dose 500.0 µg/kg.
Series [7] can be described thus: Toxicity in CCl4-induced hepatic fibrosis C57BL/6 mouse model assessed as serum hypercalcemia at 500 ug/kg, po five times a week for 2 weeks by calcium assay kit. The series is classed as organism-based. As to conditions: in vivo, 0.5 mg/kg, 336 h, dose 500 µg/kg.
In series [8] the test system is Mus musculus. The experiment in a line: Anti-fibrotic effect in bile duct ligation (BDL) surgery-induced hepatic fibrosis C57BL/6 mouse model assessed as inhibition of fibronectin (Fn) expression in liver at 500 ug/kg, po five times a week for 2 weeks by RT-qPCR analysis. It counts as functional, organism-based. The conditions noted are these: dose 500.0 µg/kg. (Quantitative PCR measures a nucleic acid by following its amplification.)

Series [9] relates to Mus musculus. The experiment in a line: Anti-fibrotic effect in bile duct ligation (BDL) surgery-induced hepatic fibrosis C57BL/6 mouse model assessed as inhibition of Ctgf expression in liver at 500 ug/kg, po five times a week for 2 weeks by RT-qPCR analysis. As to conditions: dose 500.0 µg/kg. It counts as functional, organism-based.
Series [10] relates to Mus musculus. The experiment in a line: Anti-fibrotic effect in bile duct ligation (BDL) surgery-induced hepatic fibrosis C57BL/6 mouse model assessed as reduction the lesions at 500 ug/kg, po five times a week for 2 weeks by Hematoxylin-Eosin (H&E) staining based assay. The series is classed as functional, organism-based. The conditions noted are these: dose 500.0 µg/kg.

`OCc1ccc(/C=C/c2ccc(OCCCC(F)(F)F)cc2)cc1CO`: the result in [1], in [3], in series [4], in [5], in series [6] and in series [8] was Active. Also, the result in series [9] and in series [10] was Active. Further, the Activity entry is “Dose-Dependent Effect” in series [2] and “Non-Toxic” in series [7].
